# Results as given in patent US20220017541A1, “INHIBITORS OF ARGINASE” (Black Belt Tx Ltd, priority 2018, published 2022).
# Tests used:
# [1] = molecular target: T1, native ARG1 enzyme in lysates of RBC (Homo sapiens, UniProt P05089); assay: Arginase enzymatic assay in RBC lysates from healthy donors; type: biochemical; conditions: human red blood cell lysates; read-out: IC50 Inh RBC
# T1 construct: native ARG1 enzyme in lysates of RBC; from tissue; host or cells: human red blood cell lysates from healthy donors
# T1 sequence (P05089 1-322): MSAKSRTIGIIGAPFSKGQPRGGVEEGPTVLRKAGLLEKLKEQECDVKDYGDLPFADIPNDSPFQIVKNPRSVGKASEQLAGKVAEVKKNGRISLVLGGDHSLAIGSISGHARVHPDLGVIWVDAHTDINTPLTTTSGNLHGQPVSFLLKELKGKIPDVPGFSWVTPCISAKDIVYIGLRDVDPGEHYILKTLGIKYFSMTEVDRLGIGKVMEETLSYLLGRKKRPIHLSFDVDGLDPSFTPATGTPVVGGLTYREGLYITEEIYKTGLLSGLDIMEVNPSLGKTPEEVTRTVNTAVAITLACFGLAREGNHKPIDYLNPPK
# Text: (§1) Arginase catalyzes the hydrolysis of L-arginine into L-ornithine and urea. Urea amount produced by this reaction can be detected using a colorimetric assay and used as an indirect measurement of arginase activity. An adapted protocol from (Baggio, R., et al., J Pharmacol Exp Ther, 1999. 290(3): p. 1409-16) was used for the testing the ability of exemplary compounds of the invention to inhibit arginase enzymes from a variety of sources including recombinant human ARG1 and 2, lysates of human red blood cells (RBC) and intact murine macrophages, as described below.
# (§2) Compounds of the invention were prepared from powder as 10 mM stock solutions in DMSO and stored in presence of N2 neutral atmosphere at −80° C. For IC50 determination and just before the assay, exemplary compounds were successively diluted to get the following concentrations: 210, 70, 21, 7, 2.1, 0.7, 0.21, 0.07, 0.021, 0.007, 0.0021 and 0.0007 μM (i.e., final concentrations in the wells of 30, 10, 3, 1, 0.3, 0.1, 0.03, 0.01, 0.003, 0.001, 0.0003, 0.0001 μM).
# (§3) Assays were run in clear flat bottom 96-well plates (Nunclon, Cat. No. #167008) adding in each well the following solutions in this order: (1) 10 μl of Tris-HCl solution supplemented with 0.1% bovine serum albumin (BSA) containing 1.563 μg/ml recombinant human ARG1 (R&D System, Cat. No. #5868-AR-010), (2) 30 μl of Tris-HCl buffer containing 10 mM MnCl2 and (3) 10 μL of a pre-dilution of each test article or DMSO (vehicle). Compounds were allowed to interact with the enzyme-cofactor complex pre-incubating the plate at 37° C. for 30 min. To start the reaction, 20 μl of 50 mM L-arginine (Sigma Aldrich Cat. #A5006-100G) were added to each well in exception of the blank reaction (see below). All reactions were allowed to happen for 1 h at 37° C. To detect the urea production, reactions were stopped by adding 200 μl of a mixture of reagent A (4 mM o-phthalaldehyde in 50 mM Boric Acid, 1 M Sulfuric Acid, 0.03% Brij-35 (w/v)) and reagent B (4 mM N-(1-naphthyl)ethylenediamine in 50 mM Boric Acid, 1 M Sulfuric Acid, 0.03% Brij-35 (w/v)) in equal proportion. Color product was developed for 1 h at room temperature (RT) protected from light and then absorbance at 520 nm was measured using a Multifunction Microplate Reader (Synergy 4, Bioteck). Blank reactions were carried out by adding the L-arginine substrate only after the addition of mixture A-B. All reactions were carried out in duplicates.
# (§4) The inhibition of urea production was calculated subtracting the absorbance from the blank reaction (zero enzymatic urea production) to the absorbance from all reactions and it was expressed as the percentage of the absorbance from the reaction containing the test article with respect to the absorbance from vehicle reaction (maximum of urea production).
# For testing inhibitory activity over RBC lysates from healthy donors, 10 μl of Tris-HCl solution supplemented with 0.1% BSA containing 160 μg RBC lysates per well was used instead.
# [2] = molecular target: T2, recombinant human ARG2 (Homo sapiens, UniProt P78540); assay: Arginase enzymatic assay in vitro, recombinant human ARG2 (colorimetric urea detection); type: biochemical; conditions: recombinant human arginase 2; read-out: IC50 Inh rhARG2
# T2 construct: purchased BPS Bioscience 71659
# T2 sequence (P78540 23-354): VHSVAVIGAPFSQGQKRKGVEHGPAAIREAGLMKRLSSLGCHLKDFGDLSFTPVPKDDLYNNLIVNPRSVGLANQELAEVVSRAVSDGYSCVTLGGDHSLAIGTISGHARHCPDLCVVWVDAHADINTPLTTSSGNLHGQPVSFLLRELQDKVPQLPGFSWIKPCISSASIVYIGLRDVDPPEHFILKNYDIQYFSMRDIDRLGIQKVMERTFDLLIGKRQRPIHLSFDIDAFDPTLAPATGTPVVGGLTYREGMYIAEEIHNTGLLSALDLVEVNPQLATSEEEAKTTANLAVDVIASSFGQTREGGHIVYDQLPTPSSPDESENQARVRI
# Text: as §1, §2, §3, §4
# For testing inhibitory activity over recombinant human arginase II, 10 μl of Tris-HCl solution supplemented with 0.1% BSA containing 1.5 μg/ml recombinant human ARG2 (BPS Bioscience, Cat. No. #71659) was used instead of ARG1.
SMILES,IC50 [1],IC50 [2]
"NC(CCCCB(O)O)(C(=O)O)C1CCN(C2CCc3cc(C(F)(F)F)ccc32)CC1 (single isomer, unassigned) [Compound 85, 2-amino-6-borono-2-[1-[5-(trifluoromethyl)indan-1-yl]-4-piperidyl]hexanoic acid]",< 500 nM,< 500 nM
"CNC(CCCCB(O)O)(C(=O)O)C1CCN(C2CCCc3ccccc32)CC1 (single isomer, unassigned) [Compound 79, 6-borono-2-(methylamino)-2-(1-(1,2,3,4-tetrahydronaphthalen-1-yl)piperidin-4-yl)hexanoic acid]",< 500 nM,< 500 nM
"NC(CCCCB(O)O)(C(=O)O)C1CCN(C2CCc3ccccc32)CC1 (single isomer, unassigned) [Compound 2, 2-amino-6-borono-2-(1-(2,3-dihydro-1H-inden-1-yl)piperidin-4-yl)hexanoic acid]",< 500 nM,< 500 nM
"NC(CCCCB(O)O)(C(=O)O)C1CCN(C2CCCc3ccccc32)CC1 (single isomer, unassigned) [Compound 5, 2-amino-6-borono-2-(1-(1,2,3,4-tetrahydronaphthalen-1-yl)piperidin-4-yl)hexanoic acid]",< 500 nM,< 500 nM
"NC(CCCCB(O)O)(C(=O)O)C1CCN(C2CCCc3cc(Cl)ccc32)CC1 (single isomer, unassigned) [Compound 17, 2-amino-6-borono-2-(1-(6-chloro-1,2,3,4-tetrahydronaphthalen-1-yl)piperidin-4-yl)hexanoic acid]",< 500 nM,< 500 nM
"NC(CCCCB(O)O)(C(=O)O)C1CCN(C2CCCc3ccc(F)cc32)CC1 (single isomer, unassigned) [Compound 83, 2-amino-6-borono-2-(1-(7-fluoro-1,2,3,4-tetrahydronaphthalen-1-yl)piperidin-4-yl)hexanoic acid]",< 500 nM,< 500 nM
"NC(CCCCB(O)O)(C(=O)O)C1CCN(C2CCc3ccccc32)CC1 (single isomer, unassigned) [Compound 3, 2-amino-6-borono-2-(1-(2,3-dihydro-1H-inden-1-yl)piperidin-4-yl)hexanoic acid]",> 5000 nM,> 5000 nM
"NC(CCCCB(O)O)(C(=O)O)C1CCN(C2CCCCc3ccccc32)CC1 (single isomer, unassigned) [Compound 84, 2-amino-6-borono-2-(1-(6,7,8,9-tetrahydro-5H-benzo[7]annulen-5-yl)piperidin-4-yl)hexanoic acid]",< 500 nM,500 to 5000 nM
"NC(CCCCB(O)O)(C(=O)O)C1CCN(C2CCc3ccccc32)CC1 (centres unmarked) [Compound 1, 2-amino-6-borono-2-(1-(2,3-dihydro-1H-inden-1-yl)piperidin-4-yl)hexanoic acid]",< 500 nM,500 to 5000 nM
"CC(c1ccccc1)N1CCC(C(N)(CCCCB(O)O)C(=O)O)CC1 (single isomer, unassigned) [Compound 11, 2-amino-6-borono-2-(1-(1-phenylethyl)piperidin-4-yl)hexanoic acid]",> 5000 nM,> 5000 nM
"NC(CCCCB(O)O)(C(=O)O)C1CCN(C2CCCc3ccccc32)CC1 (single isomer, unassigned) [Compound 6, 2-amino-6-borono-2-(1-(1,2,3,4-tetrahydronaphthalen-1-yl)piperidin-4-yl)hexanoic acid]",> 5000 nM,> 5000 nM
"CC1(C)OB(CCCCC(N)(C(=O)O)C2CCN(C3CCCc4ccccc43)CC2)OC1(C)C (centres unmarked) [Compound 77, 2-amino-2-(1-(1,2,3,4-tetrahydronaphthalen-1-yl)piperidin-4-yl)-6-(4,4,5,5-tetramethyl-1,3,2-dioxaborolan-2-yl)hexanoic acid]",< 500 nM,500 to 5000 nM
"NC(CCCCB(O)O)(C(=O)O)C1CCN(C2CCc3cc(Cl)ccc32)CC1 (single isomer, unassigned) [Compound 14, 2-amino-6-borono-2-[1-(5-chloroindan-1-yl)-4-piperidyl]hexanoic acid]",< 500 nM,< 500 nM
"NC(CCCCB(O)O)(C(=O)O)C1CCN(C2CCCc3ccccc32)CC1 (single isomer, unassigned) [Compound 4, 2-amino-6-borono-2-(1-(1,2,3,4-tetrahydronaphthalen-1-yl)piperidin-4-yl)hexanoic acid]",< 500 nM,500 to 5000 nM
"CC(c1ccccc1)N1CCC(C(N)(CCCCB(O)O)C(=O)O)CC1 (centres unmarked) [Compound 9, 2-amino-6-borono-2-(1-(1-phenylethyl)piperidin-4-yl)hexanoic acid]",< 500 nM,500 to 5000 nM
"CC(c1ccccc1)N1CCC(C(N)(CCCCB(O)O)C(=O)O)CC1 (single isomer, unassigned) [Compound 10, 2-amino-6-borono-2-(1-(1-phenylethyl)piperidin-4-yl)hexanoic acid]",< 500 nM,< 500 nM
